From ChEMBL document CHEMBL1141584, “Synthesis, biological evaluation and molecular modelling studies of methyleneimidazole substituted biaryls as inhibitors of human 17alpha-hydroxylase-17,20-lyase (CYP17). Part I: Heterocyclic modifications of the core structure” (Bioorg Med Chem, 2008)

Key:
CYP3A4 [1] = target: T1, CYP3A4 (Homo sapiens, UniProt P08684); experiment: Inhibition of recombinant CYP3A4 at 1 uM; assay type: ADME
CYP2B6 [2] = target: T2, CYP2B6 (Homo sapiens, UniProt P20813); experiment: Inhibition of recombinant CYP2B6 at 10 uM; assay type: ADME
T2 sequence (P20813 whole entry): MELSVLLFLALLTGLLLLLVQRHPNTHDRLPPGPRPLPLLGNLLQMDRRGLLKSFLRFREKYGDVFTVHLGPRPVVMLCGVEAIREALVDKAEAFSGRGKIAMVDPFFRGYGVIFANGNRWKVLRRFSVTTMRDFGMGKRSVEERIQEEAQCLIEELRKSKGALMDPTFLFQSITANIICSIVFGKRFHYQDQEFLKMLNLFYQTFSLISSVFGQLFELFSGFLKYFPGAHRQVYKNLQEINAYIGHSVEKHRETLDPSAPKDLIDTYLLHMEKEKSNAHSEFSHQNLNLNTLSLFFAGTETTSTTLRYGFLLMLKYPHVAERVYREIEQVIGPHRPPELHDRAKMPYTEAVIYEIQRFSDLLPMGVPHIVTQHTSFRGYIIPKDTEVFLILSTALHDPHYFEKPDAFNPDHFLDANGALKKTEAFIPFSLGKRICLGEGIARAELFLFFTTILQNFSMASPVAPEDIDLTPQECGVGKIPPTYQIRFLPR

[3] = Total body clearance in Wistar rat at 50 mg/kg, po; assay type: ADME, organism-based; parameters: dose 50 mg/kg, route oral; settings: in vivo
CYP3A4 [4] = target: T1, CYP3A4; experiment: Inhibition of recombinant CYP3A4 at 10 uM; assay type: ADME
[5] = target: T3, Steroid 17-alpha-hydroxylase/17,20 lyase (Rattus norvegicus, UniProt P11715); experiment: Inhibition of Sprague-Dawley rat testicular CYP17
T3 sequence (P11715 whole entry): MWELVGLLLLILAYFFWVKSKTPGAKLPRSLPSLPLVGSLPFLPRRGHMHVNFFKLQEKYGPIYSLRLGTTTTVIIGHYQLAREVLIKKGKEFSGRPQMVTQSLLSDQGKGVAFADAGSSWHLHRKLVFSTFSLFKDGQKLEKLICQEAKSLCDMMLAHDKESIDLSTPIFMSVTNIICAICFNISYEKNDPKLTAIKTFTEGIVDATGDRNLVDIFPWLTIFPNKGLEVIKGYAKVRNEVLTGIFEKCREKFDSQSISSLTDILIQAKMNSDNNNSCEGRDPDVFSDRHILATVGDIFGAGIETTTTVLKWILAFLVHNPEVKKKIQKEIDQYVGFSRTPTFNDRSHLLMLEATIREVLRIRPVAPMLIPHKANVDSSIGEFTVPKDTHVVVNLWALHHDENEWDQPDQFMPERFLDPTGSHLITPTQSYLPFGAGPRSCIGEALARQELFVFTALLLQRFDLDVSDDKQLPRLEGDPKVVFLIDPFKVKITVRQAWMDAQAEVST

CYP2C19 [6] = target: T4, CYP2C19 (Homo sapiens, UniProt P33261); experiment: Inhibition of recombinant CYP2C19 at 10 uM; assay type: ADME
CYP2B6 [7] = target: T2, CYP2B6; experiment: Inhibition of recombinant CYP2B6 at 1 uM; assay type: ADME
[8] = Terminal half life in Wistar rat plasma at 50 mg/kg, po; assay type: ADME, organism-based; parameters: dose 50 mg/kg, route oral
[9] = Cmax in Wistar rat at 50 mg/kg, po; assay type: ADME, organism-based; parameters: dose 50 mg/kg, route oral; settings: in vivo
[10] = AUC (0 to infinity) in Wistar rat at 50 mg/kg, po; assay type: ADME, organism-based; parameters: time infinity, dose 50 mg/kg, route oral; settings: plasma
[11] = Tmax in Wistar rat at 50 mg/kg, po; assay type: ADME, organism-based; parameters: dose 50 mg/kg, route oral; settings: in vivo
CYP2D6 [12] = target: T5, CYP2D6 (Homo sapiens, UniProt P10635); experiment: Inhibition of recombinant CYP2D6 at 1 uM; assay type: ADME
CYP2D6 [13] = target: T5, CYP2D6; experiment: Inhibition of recombinant CYP2D6 at 10 uM; assay type: ADME
Rattus norvegicus [14] = experiment: Reduction of testosterone level in Wistar rat at 50 mg/kg, po after 4 hrs by ELISA relative to pretreatment value; assay type: functional; parameters: scale not given: the % may be the effect or the level left
[15] = target: T6, Steroid 17-alpha-hydroxylase/17,20 lyase (Homo sapiens, UniProt P05093); experiment: Inhibition of human CYP17 expressed in Escherichia coli co-expressed with NADPH-P450 reductase at 2 uM
T6 sequence (P05093 whole entry): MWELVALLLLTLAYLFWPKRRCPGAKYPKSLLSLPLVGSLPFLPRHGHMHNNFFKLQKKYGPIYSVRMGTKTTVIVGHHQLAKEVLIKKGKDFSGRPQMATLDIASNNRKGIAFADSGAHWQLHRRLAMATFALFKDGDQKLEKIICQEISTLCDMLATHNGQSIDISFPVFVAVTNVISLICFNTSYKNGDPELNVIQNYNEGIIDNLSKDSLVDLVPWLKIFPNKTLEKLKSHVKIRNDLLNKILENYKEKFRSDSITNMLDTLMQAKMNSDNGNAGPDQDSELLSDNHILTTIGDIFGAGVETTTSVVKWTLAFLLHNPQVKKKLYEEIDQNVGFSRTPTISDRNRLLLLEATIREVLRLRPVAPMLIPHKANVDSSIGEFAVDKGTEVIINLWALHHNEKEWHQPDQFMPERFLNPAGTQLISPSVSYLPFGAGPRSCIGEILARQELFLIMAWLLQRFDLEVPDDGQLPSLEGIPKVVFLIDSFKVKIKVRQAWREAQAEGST

CYP2C19 [16] = target: T4, CYP2C19; experiment: Inhibition of recombinant CYP2C19 at 1 uM; assay type: ADME
[17] = target: T6, Steroid 17-alpha-hydroxylase/17,20 lyase; experiment: Inhibition of human CYP17 expressed in Escherichia coli co-expressed with NADPH-P450 reductase
CYP1A2 [18] = target: T7, CYP1A2 (Homo sapiens, UniProt P05177); experiment: Inhibition of recombinant CYP1A2 at 1 uM; assay type: ADME
T7 sequence (P05177 whole entry): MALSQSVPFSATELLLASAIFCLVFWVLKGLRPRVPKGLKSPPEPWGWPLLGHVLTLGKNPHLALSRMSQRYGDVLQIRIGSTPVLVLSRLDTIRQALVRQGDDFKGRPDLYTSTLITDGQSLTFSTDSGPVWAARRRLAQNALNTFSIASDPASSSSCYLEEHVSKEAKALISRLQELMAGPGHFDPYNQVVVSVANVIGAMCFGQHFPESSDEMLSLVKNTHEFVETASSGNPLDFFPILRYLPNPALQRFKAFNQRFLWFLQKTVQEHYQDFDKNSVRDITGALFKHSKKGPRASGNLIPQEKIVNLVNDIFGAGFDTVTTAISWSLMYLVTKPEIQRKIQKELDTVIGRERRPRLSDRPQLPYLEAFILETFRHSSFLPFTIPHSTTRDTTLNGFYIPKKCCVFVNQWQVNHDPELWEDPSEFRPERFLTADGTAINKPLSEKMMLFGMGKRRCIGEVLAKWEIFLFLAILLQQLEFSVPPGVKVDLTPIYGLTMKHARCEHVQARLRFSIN

Rattus norvegicus [19] = experiment: Reduction of testosterone level in Wistar rat plasma at 50 mg/kg, po after 1 hr by ELISA relative to pretreatment value; assay type: functional; parameters: scale not given: the % may be the effect or the level left
Rattus norvegicus [20] = experiment: Reduction of testosterone level in Wistar rat plasma at 50 mg/kg, po after 6 hrs by ELISA relative to pretreatment value; assay type: functional; parameters: scale not given: the % may be the effect or the level left
[21] = target: T6, Steroid 17-alpha-hydroxylase/17,20 lyase; experiment: Inhibition of human CYP17 expressed in Escherichia coli co-expressed with NADPH-P450 reductase at 0.2 uM
Rattus norvegicus [22] = experiment: Reduction of testosterone level in Wistar rat plasma at 50 mg/kg, po after 8 hrs by ELISA relative to pretreatment value; assay type: functional; parameters: scale not given: the % may be the effect or the level left
CYP1A2 [23] = target: T7, CYP1A2; experiment: Inhibition of recombinant CYP1A2 at 10 uM; assay type: ADME
CYP2C9 [24] = target: T8, CYP2C9 (Homo sapiens, UniProt P11712); experiment: Inhibition of recombinant CYP2C9 at 1 uM; assay type: ADME
Rattus norvegicus [25] = experiment: Reduction of testosterone level in Wistar rat plasma at 50 mg/kg, po after 2 hrs by ELISA relative to pretreatment value; assay type: functional; parameters: scale not given: the % may be the effect or the level left
CYP2C9 [26] = target: T8, CYP2C9; experiment: Inhibition of recombinant CYP2C9 at 10 uM; assay type: ADME

T4 sequence (P33261 whole entry): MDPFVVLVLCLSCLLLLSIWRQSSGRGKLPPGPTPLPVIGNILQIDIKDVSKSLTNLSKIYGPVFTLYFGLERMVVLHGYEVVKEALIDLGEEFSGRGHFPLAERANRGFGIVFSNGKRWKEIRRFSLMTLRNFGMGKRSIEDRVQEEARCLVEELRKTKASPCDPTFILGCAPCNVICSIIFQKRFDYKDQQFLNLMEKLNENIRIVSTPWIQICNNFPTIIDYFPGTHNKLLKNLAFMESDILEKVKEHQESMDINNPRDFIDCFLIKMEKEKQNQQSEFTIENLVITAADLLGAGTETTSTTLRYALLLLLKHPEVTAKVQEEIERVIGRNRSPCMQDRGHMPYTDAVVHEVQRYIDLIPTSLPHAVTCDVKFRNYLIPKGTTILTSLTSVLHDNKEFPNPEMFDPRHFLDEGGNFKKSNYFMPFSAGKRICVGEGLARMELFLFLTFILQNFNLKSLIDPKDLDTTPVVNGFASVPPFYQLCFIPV
T5 sequence (P10635 whole entry): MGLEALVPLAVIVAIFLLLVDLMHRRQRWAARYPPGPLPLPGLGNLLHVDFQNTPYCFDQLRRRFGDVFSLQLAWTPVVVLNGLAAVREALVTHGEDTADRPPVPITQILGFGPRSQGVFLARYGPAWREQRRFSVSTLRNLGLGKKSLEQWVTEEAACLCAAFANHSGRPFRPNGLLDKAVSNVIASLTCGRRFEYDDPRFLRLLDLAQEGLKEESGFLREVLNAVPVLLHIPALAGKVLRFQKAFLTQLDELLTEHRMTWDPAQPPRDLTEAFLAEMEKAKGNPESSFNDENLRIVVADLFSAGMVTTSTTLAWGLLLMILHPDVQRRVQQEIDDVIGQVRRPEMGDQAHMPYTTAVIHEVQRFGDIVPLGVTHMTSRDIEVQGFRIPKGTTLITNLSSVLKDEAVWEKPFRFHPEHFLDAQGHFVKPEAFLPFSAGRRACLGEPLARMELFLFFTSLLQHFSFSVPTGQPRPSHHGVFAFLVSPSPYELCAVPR
T8 sequence (P11712 whole entry): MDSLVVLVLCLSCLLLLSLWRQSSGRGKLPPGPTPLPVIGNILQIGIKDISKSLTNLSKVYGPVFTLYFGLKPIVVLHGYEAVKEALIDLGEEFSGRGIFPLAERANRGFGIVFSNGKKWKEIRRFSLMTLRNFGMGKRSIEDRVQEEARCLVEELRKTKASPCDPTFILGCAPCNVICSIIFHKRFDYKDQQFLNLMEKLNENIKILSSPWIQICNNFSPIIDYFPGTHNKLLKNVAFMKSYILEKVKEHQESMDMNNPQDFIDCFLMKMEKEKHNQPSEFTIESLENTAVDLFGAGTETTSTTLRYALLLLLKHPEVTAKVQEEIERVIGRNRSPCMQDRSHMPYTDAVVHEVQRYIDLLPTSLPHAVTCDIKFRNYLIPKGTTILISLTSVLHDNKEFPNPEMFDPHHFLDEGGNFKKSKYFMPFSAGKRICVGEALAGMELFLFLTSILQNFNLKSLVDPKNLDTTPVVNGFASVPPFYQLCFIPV
T1 sequence (P08684 whole entry): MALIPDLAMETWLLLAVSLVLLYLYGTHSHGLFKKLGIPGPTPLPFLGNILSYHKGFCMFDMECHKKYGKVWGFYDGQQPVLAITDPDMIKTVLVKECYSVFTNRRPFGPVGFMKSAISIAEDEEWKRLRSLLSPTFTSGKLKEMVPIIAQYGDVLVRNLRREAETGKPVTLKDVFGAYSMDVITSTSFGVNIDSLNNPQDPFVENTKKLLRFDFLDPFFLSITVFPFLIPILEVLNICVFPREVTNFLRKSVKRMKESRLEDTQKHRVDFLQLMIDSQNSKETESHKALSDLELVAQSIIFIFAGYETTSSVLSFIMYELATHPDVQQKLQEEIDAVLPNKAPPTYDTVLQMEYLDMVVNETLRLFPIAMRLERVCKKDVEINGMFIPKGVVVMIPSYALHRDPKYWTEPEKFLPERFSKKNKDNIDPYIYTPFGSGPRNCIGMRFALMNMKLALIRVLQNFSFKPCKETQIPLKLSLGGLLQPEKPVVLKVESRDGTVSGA

inhibition at 1 µM (CYP3A4 [1]) [%]	inhibition at 10 µM (CYP2B6 [2]) [%]	CL/F [3] [mL/min/kg]	inhibition at 10 µM (CYP3A4 [4]) [%]	IC50 [5] [nM]	inhibition at 10 µM (CYP2C19 [6]) [%]	inhibition at 1 µM (CYP2B6 [7]) [%]	half-life [8] [h]	Cmax [9] [ng/mL]	AUC(0-inf) [10] [ng·h/mL]	Tmax [11] [h]	inhibition at 1 µM (CYP2D6 [12]) [%]	inhibition at 10 µM (CYP2D6 [13]) [%]	inhibition at 2 µM [15] [%]	inhibition at 1 µM (CYP2C19 [16]) [%]	IC50 [17] [nM]	inhibition at 1 µM (CYP1A2 [18]) [%]	SMILES	Activity (Rattus norvegicus [14]) [%]	Activity (Rattus norvegicus [19]) [%]	Activity (Rattus norvegicus [20]) [%]	also measured
4	11	187	25	220	21	2	1.6	592	4020	2	7	7	–	–	–	–	C[C@]12CC[C@H](O)CC1=CC[C@@H]1[C@@H]2CC[C@]2(C)C(c3cccnc3)=CC[C@@H]12 [ABIRATERONE]	–	–	–	–
88	87	125	92	562	100	60	3.8	1740	6700	1	24	77	83	95	373	98	CCC(c1ccc(-c2ccsc2)cc1)n1ccnc1 (centres undefined)	26.9	37.6	62.6	inhibition at 0.2 µM [21]: 28%; Activity (Rattus norvegicus [22]): 63%; inhibition at 10 µM (CYP1A2 [23]): 100%; inhibition at 1 µM (CYP2C9 [24]): 81%; Activity (Rattus norvegicus [25]): 30.5%; inhibition at 10 µM (CYP2C9 [26]): 74%
80	87	33.5	94	676	99	49	9.5	1280	24900	1	17	68	67	87	953	97	CC(c1ccc(-c2ccsc2)cc1)n1ccnc1 (centres undefined)	25.9	30.9	29.7	inhibition at 0.2 µM [21]: 21%; Activity (Rattus norvegicus [22]): 34.1%; inhibition at 10 µM (CYP1A2 [23]): 100%; inhibition at 1 µM (CYP2C9 [24]): 75%; inhibition at 10 µM (CYP2C9 [26]): 89%
